# Test results published in article PMC10287566, “Signaling-specific inhibition of the CB1 receptor for cannabis use disorder: phase 1 and phase 2a randomized trials” (Nature Medicine, 2023).
# Like-named read-outs stand apart in the source and are kept apart here.
# Experiments:
# [1] = Plasma pharmacokinetics/toxicokinetics in dogs (oral and i.v.); type: in vivo; details: both sexes, Beagle, dog; for bioavailability: ratio of AUC per os and i.v.
# Method: For both conditions, animals were fasted overnight before dosing and up to approximately 2 h afterwards. […] Blood samples were drawn from the cephalic or jugular veins at the following timepoints: before dose and then at 0.125 h (7.5 min), 0.25 h, 0.5 h, 1 h, 2 h, 4 h, 6 h, 8 h, 10 h, 24 h and 48 h after dosing.
# Blood samples were immediately cooled on ice. Plasma was prepared by centrifugation for 7 min at 1,600g under refrigeration (4 ± 2 °C), performed within 15 min at maximum after blood sampling. Plasma was divided into two polypropylene tubes containing at least 500 µl and then stored frozen (≤−70 °C) until assay.
# For all studies in rats and the 91-d toxicity study in dogs, the timepoints on days 1, 28 and 91 were: before dose and 1, 3, 5, 8 and 24 h after dose. For the 28-d toxicity study in dogs, the timepoints on days 1 and 28 were: before dose and 1, 2, 4, 8, and 24 h after dose. In both species, only mean pre-dose plasma concentrations were calculated on day 14 for the 28-d study and on day 28 for the 91-d study. For the experiments in rats, blood samples for drug analysis were taken from the satellite animals used for the toxicokinetic (TK) analysis (n = 3 per sex per timepoint and per group). For experiments performed in dogs, blood samples were drawn from the cephalic or jugular veins of all animals (n = 3 per sex per group).
# TK analysis was performed separately per sex on mean concentrations by a non-compartmental analysis (NCA). The linearity of exposure was evaluated by comparison of the AUC/dose and Cmax/dose ratios. Possible accumulation was evaluated from the ratio of AUC on day 28 and on day 1 for each dose level and each sex. Samples lower than the limit of quantification (LLQ) values (that is, < 8.00 ng ml^−1 in rats and <20.0 ng ml^−1 in dogs) were not included in the calculation of TK parameters.
# volunteers with CUD = experiment: Phase 2a study, precipitated withdrawal, mood and sleep; type: in vivo, human
# Method: In addition to general safety assessment of vital signs, clinical chemistry and AEs, symptoms of cannabis withdrawal were assessed by daily measures of food intake, body weight, sleep efficiency[23],[41],[42] and mood[22]. […]
# We measured seven subscales of the 44-item VAS (‘Miserable’, ‘Anxious’, ‘Tired’, ‘Confused’, ‘Irritable’, ‘Social’ and ‘Bad effect’). […] Ratings were then done repeatedly (five times at 20, 40, 60, 90 and 120 min after cannabis).
# squirrel monkeys = experiment: THC-induced reinstatement of THC seeking in squirrel monkeys; type: in vivo, Saimiri sciureus
# Source text: Two experimental models were used: (1) THC i.v. self-administration and (2) THC-induced reinstatement of THC seeking. These two approaches were used to model the maintenance of daily cannabis use and cannabis seeking after a period of abstinence.
# For the THC-induced reinstatement of THC seeking, the monkeys underwent daily extinction sessions during which lever presses led to vehicle infusions and the visual cues previously paired with THC infusions but not THC. […] THC injections were given immediately before the start of the test sessions. During testing, lever presses (FR10) continued to produce only vehicle injections and the THC-paired cues. […] Recommendations from the Guide for the Care and Use of Laboratory Animals (8th edition) and guidelines of the Institutional Animal Care and Use Committee of the Intramural Research Program, NIDA, NIH, DHHS, were followed. Animals were maintained in facilities fully accredited by the AAALAC. Operation of the experimental chambers and data collection were controlled by IBM computers using the MED Associates MED-PC software package.
# [2] = Plasma and brain pharmacokinetics of oral AEF0117 in mice; type: in vivo; details: mouse; for Kp: brain/plasma
# Method: Blood samples were centrifuged within 15 min after collection (~7 min at 1,600g and 4 °C) to obtain plasma. The brain was also harvested, weighed and frozen on dry ice. Plasma and brains were stored below −70 °C until analysis.
# [3] = iv, 0.7 mg/kg, dogs i.v. 0.7 mg/kg
# [4] = po, 0.7 mg/kg, dogs po 0.7 mg/kg single
# [5] = po, 2 mg/kg, dogs po 2 mg/kg single, 91-day tox study
# [6] = po, 2 mg/kg, dogs po 2 mg/kg theoretical (approx. 0.5 mg/kg received), 28-day tox study
# [7] = po, 9 mg/kg, dogs po 9 mg/kg single, 28-day tox study
# [8] = po, 20 mg/kg, dogs po 20 mg/kg single, 91-day tox study
# [9] = po, 36 mg/kg, dogs po 36 mg/kg single, 28-day tox study
# [10] = po, 65 mg/kg, dogs po 65 mg/kg single, 91-day tox study
# [11] = Reinstatement of THC self-administration
# [12] = both sexes, CD-1 Swiss, plasma, mice po 0.3 mg/kg single
# [13] = both sexes, CD-1 Swiss, plasma, mice po 4 mg/kg single
# [14] = both sexes, CD-1 Swiss, plasma, mice po 10 mg/kg single
compound,measurement,setting,value
"COc1ccc(CO[C@H]2CC[C@@]3(C)C(=CC[C@H]4[C@@H]5CC[C@H](C(C)=O)[C@@]5(C)CC[C@@H]43)C2)cc1 [AEF0117, 3β-(4-methoxybenzyloxy)pregn-5-en-20-one]",Tmax,[1]; dogs po 0.7 mg/kg single,2.67 h
same,Tmax,"[1]; dogs po 2 mg/kg theoretical (approx. 0.5 mg/kg received), 28-day tox study",4 h
same,Tmax,"[1]; dogs po 9 mg/kg single, 28-day tox study",6 h
same,Tmax,"[1]; dogs po 20 mg/kg single, 91-day tox study",4 h
same,Tmax,"[1]; dogs po 36 mg/kg single, 28-day tox study",4 h
same,Tmax,"[1]; dogs po 65 mg/kg single, 91-day tox study",4 h
same,half-life,"[1]; dogs, read-out: terminal half-life (converted)",2150 min
same,AUC(0-t),[1]; [3],2190 ng·h/mL
same,Cmax,[1]; [3],505 ng/mL
same,half-life,"[1]; iv, 0.7 mg/kg, dogs i.v. 0.7 mg/kg, manual linear regression of last three points, read-out: t½ (converted)",2150 min
same,half-life,"[1]; iv, 0.7 mg/kg, dogs iv, read-out: half-life",2010 to 2290 min
same,Tmax,"[1]; iv, dogs i.v. 0.7 mg/kg",0.125 h
same,bioavailability,"[1]; oral, 0.7 mg kg^−1, dogs",~68%
same,AUC(0-t),[1]; [4],1450 ng·h/mL
same,Cmax,[1]; [4],138 ng/mL
same,half-life,"[1]; po, 0.7 mg/kg, dogs po 0.7 mg/kg, manual linear regression of last three points, read-out: t½ (converted)",1680 min
same,bioavailability,"[1]; po, 0.7 mg/kg, dogs",68%
same,AUC(0-t),[1]; [5],2910 ng·h/mL
same,Cmax,[1]; [5],241 ng/mL
same,AUC(0-t),[1]; [6],1020 ng·h/mL
same,Cmax,[1]; [6],95 ng/mL
same,AUC(0-t),[1]; [7],18500 ng·h/mL
same,Cmax,[1]; [7],1200 ng/mL
same,AUC(0-t),[1]; [8],26500 ng·h/mL
same,Cmax,[1]; [8],2530 ng/mL
same,AUC(0-t),[1]; [9],50300 ng·h/mL
same,Cmax,[1]; [9],3480 ng/mL
same,AUC(0-t),[1]; [10],43500 ng·h/mL
same,Cmax,[1]; [10],3300 ng/mL
same,half-life,"[1]; po, dogs per os, read-out: half-life",1460 to 1900 min
same,"'Social' subscale rating after smoking cannabis, mean (SEM)","volunteers with CUD; 0.06 mg cohort, Day 1",66.9 (4.3)
same,"'Social' subscale, AEF0117-Placebo","volunteers with CUD; 0.06 mg cohort, Day 1",-5.9
same,"'Social' subscale rating after smoking cannabis, mean (SEM)","volunteers with CUD; 0.06 mg cohort, Day 2",67.4 (5.8)
same,"'Social' subscale, AEF0117-Placebo","volunteers with CUD; 0.06 mg cohort, Day 2",-3.1
same,"'Social' subscale rating after smoking cannabis, mean (SEM)","volunteers with CUD; 0.06 mg cohort, Day 3",64.4 (6.0)
same,"'Social' subscale, AEF0117-Placebo","volunteers with CUD; 0.06 mg cohort, Day 3",-6.6
same,"'Social' subscale rating after smoking cannabis, mean (SEM)","volunteers with CUD; 0.06 mg cohort, Day 4",63.9 (5.6)
same,"'Social' subscale, AEF0117-Placebo","volunteers with CUD; 0.06 mg cohort, Day 4",-7.8
same,"'Social' subscale rating after smoking cannabis, mean (SEM)","volunteers with CUD; 0.06 mg cohort, Day 5",64.0 (5.8)
same,"'Social' subscale, AEF0117-Placebo","volunteers with CUD; 0.06 mg cohort, Day 5",-6.0
same,"'Social' subscale rating after smoking cannabis, mean (SEM)","volunteers with CUD; 1 mg cohort, Day 1",71.9 (5.5)
same,"'Social' subscale, AEF0117-Placebo","volunteers with CUD; 1 mg cohort, Day 1",3.9
same,"'Social' subscale rating after smoking cannabis, mean (SEM)","volunteers with CUD; 1 mg cohort, Day 2",71.4 (5.2)
same,"'Social' subscale, AEF0117-Placebo","volunteers with CUD; 1 mg cohort, Day 2",1.3
same,"'Social' subscale rating after smoking cannabis, mean (SEM)","volunteers with CUD; 1 mg cohort, Day 3",71.1 (5.6)
same,"'Social' subscale, AEF0117-Placebo","volunteers with CUD; 1 mg cohort, Day 3",0.1
same,"'Social' subscale rating after smoking cannabis, mean (SEM)","volunteers with CUD; 1 mg cohort, Day 4",67.0 (5.9)
same,"'Social' subscale, AEF0117-Placebo","volunteers with CUD; 1 mg cohort, Day 4",-6.0
same,"'Social' subscale rating after smoking cannabis, mean (SEM)","volunteers with CUD; 1 mg cohort, Day 5",69.5 (6.6)
same,"'Social' subscale, AEF0117-Placebo","volunteers with CUD; 1 mg cohort, Day 5",-1.6
same,difference between AEF0117 and placebo on the 'Social' subscale,"volunteers with CUD; 100-mm scale, after cannabis",< 8 mm
same,precipitation of cannabis withdrawal,"volunteers with CUD; Phase 2a, 0.06 and 1 mg",little to suggest that AEF0117 precipitated cannabis withdrawal
same,"'Irritable' subscale, effect of treatment","volunteers with CUD; Treatment x Day x Time, before cannabis",small but significant effect
same,reinstatement of THC seeking,squirrel monkeys; 1.5 µg kg^−1 oral,significantly reduced
same,% Inhibition,squirrel monkeys; [11],80%
same,ID100,squirrel monkeys; [11],≤ 1.5 µg/kg
same,Tmax,"[2]; CD-1 Swiss (mice), Sprague Dawley (rats), brain, oral, mice and rats, read-out: tmax in the brain",7 h
same,Kp,"[2]; CD-1 Swiss (mice), Sprague Dawley (rats), po, mice and rats, oral, corn oil, read-out: brain/plasma concentration AUC ratio",> 4
same,Tmax,"[2]; CD-1 Swiss (mice), Sprague Dawley (rats), Beagle (dogs), plasma, po, mice, rats and dogs, single per os, read-out: tmax",~3 h
same,Kp,"[2]; both sexes, CD-1 Swiss, oral, 0.3 mg/kg, read-out: AUClast brain/plasma ratio",7.3
same,half-life,"[2]; both sexes, CD-1 Swiss, plasma, po, mice per os, read-out: half-life",606 to 1540 min
same,AUC(0-t),[2]; [12],252 ng·h/mL
same,Cmax,[2]; [12],35.5 ng/mL
same,Tmax,"[2]; both sexes, CD-1 Swiss, plasma, mice po 0.3 mg/kg single, read-out: tmax",2.5 h
same,half-life,"[2]; both sexes, CD-1 Swiss, plasma, mice po 0.3 mg/kg single, read-out: t½ (converted)",1070 min
same,AUC(0-t),[2]; [13],3730 ng·h/mL
same,Cmax,[2]; [13],490 ng/mL
same,Tmax,"[2]; both sexes, CD-1 Swiss, plasma, mice po 4 mg/kg single, read-out: tmax",2.25 h
same,half-life,"[2]; both sexes, CD-1 Swiss, plasma, mice po 4 mg/kg single, read-out: t½ (converted)",1100 min
same,AUC(0-t),[2]; [14],11300 ng·h/mL
same,Cmax,[2]; [14],1790 ng/mL
same,Tmax,"[2]; both sexes, CD-1 Swiss, plasma, mice po 10 mg/kg single, read-out: tmax",2.25 h
same,half-life,"[2]; both sexes, CD-1 Swiss, plasma, mice po 10 mg/kg single, read-out: t½ (converted)",1090 min
same,Tmax,"[2]; both sexes, CD-1 Swiss, plasma, mice, oral, corn oil, read-out: Tmax",3 h
